≈ marks a conversion by molar mass, not a printed value. Read-outs that look alike come from different tables or passages of the source.
Key:
[1] = solubility in buffer solution; format: physicochemical; settings: pH 7.5, aqueous buffer
Protocol: Said solubilities are given in g. of rifamycin % ml. of buffer solution (pH=7,5 and t=22° C.). DA means desacetyl.

in vivo = settings: mouse

Compound | solubility ([1]; buffer solution, pH = 7,5, 22° C., read-out: Solubility) | LD50 (in vivo; ip, acute toxicity, mice) | solubility ([1]; buffer) | LD50 (in vivo; iv)
COC1C=COC2(C)Oc3c(C)c(O)c4c(O)c(c(C=NN5CCN(C)CC5)c(O)c4c3C2=O)NC(=O)C(C)=CC=CC(C)C(O)C(C)C(O)C(C)C(OC(C)=O)C1C (stereo not shown) [3-(4-methyl-piperazinyl-iminomethyl)-rifamycin SV, reference compound] | 2850 µg/mL (≈ 3460 µM) | 460 mg/kg |  | 
CCN(CC)Cc1c2c(O)c3c(O)c(C)c4c(c3c1O)C(=O)C(C)(OC=CC(OC)C(C)C(OC(C)=O)C(C)C(O)C(C)C(O)C(C)C=CC=C(C)C(=O)N2)O4 (stereo not shown) [3-diethylaminomethyl-rifamycin SV, reference compound] |  |  | 420 µg/mL (≈ 536 µM) | 
COC1C=COC2(C)Oc3c(C)c(O)c4c(O)c(c(C=O)c(O)c4c3C2=O)NC(=O)C(C)=CC=CC(C)C(O)C(C)C(O)C(C)C(OC(C)=O)C1C (stereo not shown) [3-formyl-rifamycin SV, reference compound] |  | 300 mg/kg | 6400 µg/mL (≈ 8820 µM) | 
CON=Cc1c2c(O)c3c(O)c(C)c4c(c3c1O)C(=O)C(C)(OC=CC(OC)C(C)C(OC(C)=O)C(C)C(O)C(C)C(O)C(C)C=CC=C(C)C(=O)N2)O4 (stereo not shown) [3-methoximinomethyl-rifamycin SV, reference compound] |  |  | 150 µg/mL (≈ 199 µM) | 
COC1C=COC2(C)Oc3c(C)c(O)c4c(O)c(c(CN5CCCC5)c(O)c4c3C2=O)NC(=O)C(C)=CC=CC(C)C(O)C(C)C(O)C(C)C(OC(C)=O)C1C (stereo not shown) [3-pyrrolidino-methyl-rifamycin SV, reference compound] |  |  | 60 µg/mL (≈ 76.8 µM) | 
COC1C=COC2(C)Oc3c(C)c(O)c4c(O)c(c(C=NN5CCN(C)CC5)c(O)c4c3C2=O)NC(=O)C(C)=CC=CC(C)C(O)C(C)C(O)C(C)C(O)C1C (stereo not shown) [25-DA-3-(4-methyl-piperazinyl-iminomethyl)-rifamycin SV] |  | 850 mg/kg | 7600 µg/mL (≈ 9730 µM) | 
CCN(CC)Cc1c2c(O)c3c(O)c(C)c4c(c3c1O)C(=O)C(C)(OC=CC(OC)C(C)C(O)C(C)C(O)C(C)C(O)C(C)C=CC=C(C)C(=O)N2)O4 (stereo not shown) [25-DA-3-diethylaminomethyl-rifamycin SV, 25-desacetyl-3-diethylaminomethyl-rifamycin SV] |  |  | 1260 µg/mL (≈ 1700 µM) | 
COC1C=COC2(C)Oc3c(C)c(O)c4c(O)c(c(C=O)c(O)c4c3C2=O)NC(=O)C(C)=CC=CC(C)C(O)C(C)C(O)C(C)C(O)C1C (stereo not shown) [25-DA-3-formyl-rifamycin SV] |  | 550 mg/kg | 34300 µg/mL (≈ 50200 µM) | 
CON=Cc1c2c(O)c3c(O)c(C)c4c(c3c1O)C(=O)C(C)(OC=CC(OC)C(C)C(O)C(C)C(O)C(C)C(O)C(C)C=CC=C(C)C(=O)N2)O4 (stereo not shown) [25-DA-3-methoximinomethyl-rifamycin SV] |  | 560 mg/kg | 340 µg/mL (≈ 477 µM) | 
COC1C=COC2(C)Oc3c(C)c(O)c4c(O)c(c(CN5CCCC5)c(O)c4c3C2=O)NC(=O)C(C)=CC=CC(C)C(O)C(C)C(O)C(C)C(O)C1C (stereo not shown) [25-DA-3-pyrrolidino-methyl-rifamycin SV] |  |  | 2800 µg/mL (≈ 3790 µM) | 
CCN(CC)C(=O)COc1cc2c(O)c3c(O)c(C)c4c(c13)C(=O)C(C)(OC=CC(OC)C(C)C(O)C(C)C(O)C(C)C(O)C(C)C=CC=C(C)C(=O)N2)O4 (stereo not shown) [25-DA-rifamycin B diethylamide] |  |  |  | 600 mg/kg

From patent publication US4188321A, “25-Desacetyl rifamycins” (Gruppo Lepetit S.p.A., priority 1966, dated 1980)
